Common to all, as to format: cell-based
One assay has as its system HRVc25 replicon. As to the kind of experiment: HRVc25 EC50 (replicon luciferase in H1-HeLa cells). The note with it: 48 hrs. On the procedure:
(§1) First, HRV replicon RNA is prepared. 5 ug of DNA Template (HRVc15 or HRVc25) is linearized with 2 μL of MluI enzyme in NEB buffer-3 in a final volume of 25 μL for 3 hours at 37° C. Following incubation, linearized DNA is purified on a PCR purification column and the following in vitro transcription is performed using the following conditions: 10 μL of RiboMAX Express T7 2× buffer, 1-8 μL of linear DNA template (1 μg), 0-7 μL nuclease free water, 2 μL enzyme mix T7 express. The final volume of 20 μL is mixed and incubated at 37° C. for 30 min. Following incubation, 1 μL of RQ1 RNase free DNase is added and the mixture is incubated at 37° C. for 15 min. The resulting RNA is then purified with the MegaClear Kit (Gibco Life Technologies cat #11835-030) and is eluted two times with 50 μL of elution buffer at 95° C. […] Replicon activity is then measured by a Renilla-Glo Luciferase Assay system. Prior to signal quantification, plates are removed from incubators and are allowed to equilibrate to 25° C. after 50 uL is removed from each well. […] Plates are then incubated for 20 min at 25° C. under gentle agitation and luciferase signal are determined with a 0.1 second detection setting using an EnVision luciferase quantification reader.
A general note: In antiviral work, replicon cells carry a viral genome segment that copies itself.

For another assay, the system named is HRVc15 replicon. Briefly: HRVc15 EC50 (replicon luciferase in H1-HeLa cells). The note with it: 48 hrs. How it is done:
as §1

In another assay the test system is RSV A strain A2. As to the kind of experiment: RSV HAE EC50 (intracellular RSV RNA by real-time PCR in HAE cells). The note with it: human respiratory syncytial virus, HAE, 72 h, read-out: RSV HAE EC50. How it is done: HAE cells are cultured at the air-liquid interface and have an apical side that is exposed to the air and a basal side that is in contact with the medium. Prior to experimentation, HAE were removed from their agar-based shipping packaging and were acclimated to 37° C./5% CO2 overnight in 1 ml of HAE Assay medium (AIR-100-MM, Mattek Corp). HAE were prepared for infection by washing the apical surface twice with 400 μL of PBS (either utilizing direct pipetting methods or by running each transwell through a trough containing PBS) to remove the mucus layer. Apical chambers were drained of PBS and tapped gently onto absorbent material to remove as much PBS as possible. After washing, the cells were transferred to fresh HAE maintenance media containing 4-fold serially diluted compound, delivered to the basal side of the cell monolayer, and apically infected with 100 μL of a 1:600 dilution of RSV A strain A2 1000× stock (ABI, Columbia, MD, cat #10-124-000) in HAE assay medium for 3 hours at 37° C. in 5% CO2. The virus inoculum was removed and the apical surface of the cells was washed 3 times with PBS using either method previously described. The cells were then cultured in the presence of compound for 3 days at 37° C. Following the incubation, total RNA was extracted from the HAE cells using a MagMAX-96 Viral RNA isolation kit (Applied Biosystems, Foster City, CA, Cat #AM1836) and intracellular RSV RNA was quantified by real-time PCR. Approximately 25 ng of purified RNA was added to a PCR reaction mixture that contained 0.9 μM RSV N Forward and RSV N Reverse primers, 0.2 μM RSV N Probe and 1×Taqman RNA-to-Ct 1-Step Kit (Applied Biosystems, Foster City, CA, Cat #4392938). RNA levels were normalized using a Tagman GAPDH control primer set (Applied Biosystems, Foster City, CA, Cat #402869). Real-Time PCR Primers and Probe Used in the RSV A2 HAE Antiviral Assay: […]

pEC50: −log10 of the molar value.

What is called pEC50 is the negative decadic logarithm of the EC50, by convention in mol/L.

`C[C@H](N[P@](=O)(OC[C@@]1(C#N)O[C@@H](c2ccc3c(N)ncnn23)[C@H](O)[C@@H]1O)Oc1ccccc1)C(=O)OC1CCCCC1` (single isomer, unassigned) [Example 6]: the negative logarithm of the EC50 (pEC50) was 8.15 with HRVc25 replicon, 8.05 in the assay with HRVc15 replicon and 7.70 with RSV A strain A2.

(Values after patent publication US20230295201A1 (Gilead Sciences, Inc., priority 2020, published 2023).)
